Here are results for two molecules from patent publication US20040167229A1, “Method of lowering CRP and reducing systemic inflammation” (priority 2002, published 2004).

Structures are written as SMILES. Marks after values point to notes of the source that are not given here.

Test [1] deals with proinflammatory cytokine induced CRP production by human hepatoma cell line PLC/PRF/5. The test can be described thus: CRP production by cytokine stimulated human hepatoma PLC/PRF/5 cells, CRP ELISA of cell media (Example 16). The format is cell-based. Conditions: 10 ng/ml IL-6, 1 ng/ml IL-1, 1 μM dexamethasone, 24 hours, FIG. 1. The source says:
As noted above dialkyl ethers are useful for inhibiting proinflammatory cytokine induced CRP production. Studies have shown that the acute phase response can be recapitulated in cultured human hepatoma cells stimulated with the pro-inflammatory cytokines IL-6 and IL-1 in the presence of the corticosteroid Dexamethasone (Lozanski G, Berthier F, and Kushner I, 1997; Biochem J. 328:271-275). Using a similar hepatoma cell system we evaluated the effect 6,6′-oxybis(2,2-dimethylhexanoic acid) on CRP production by cytokine stimulated human hepatoma PLC/PRF/5 cells. […]
CRP protein concentrations were determined using a CRP ELISA Kit (Alpha Diagnostic International, Inc. San Antonio, Tex. USA (Cat. No.1000)). […] At the end of this incubation a 50 μl stop solution (as described by the manufacturer of the CRP kit) was added to each well and the plate was used to measure absorbance at 450 nm in a Spectra Max Plus, Molecular Devices spectrophotometer.
A CRP standard curve (in ng/ml) was generated by determining 450 nm absorbance values for different amounts of a standard CRP solution, provided by the vendor of the CRP kit, and correcting these values by subtracting the 450 nm absorbance of zero CRP control samples. CRP determinations in experimental samples was done as follows: 10 μl cell media samples in duplicates or triplicates were used to determine 450 nm absorbance. […]

Test [2] has as its system CRP. The test can be described thus: Randomized, double-blind, placebo-controlled dose-response study in patients with HDL-C <35 mg/dL, 12 weeks; CRP by high sensitivity immunonephelometry (Example 15). Type of test: in vivo, human. To be noted: for levels of CRP reduced by: 900 mg/day; for % change in CRP levels from base line: median percent change. As to the method: As noted above, the dialkyl ethers of this invention are useful for lowering plasma CRP levels. The ability of a dialkylether to lower plasma CRP levels was determined using in vivo studies routinely utilized by those skilled in the art.
A randomized, double-blind, placebo-controlled, parallel group, dose-response, multicenter study was conducted at 11 centers in the United States and one center in Canada. Eligible patients with HDL-C level<35 mg/dL (0.9 mmol/L) were selected following a 6-week, single-blind placebo, dietary lead in period conducted according to National Cholesterol Education Program (NCEP) Step 1 Diet. The NCEP Step 1 Diet guidelines are as follows:
Eligible patients with HDL-C level<35 mg/dL (0.9 mmol/L) were stratified according to whether mean serum TG level measured at both 2 and 4 weeks prior to randomization was <200 mg/dL (2.3 mmol/L) or ≧200 mg/dL (2.3 mmol/L). Within each TG stratum, patients were randomized to receive either 150, 300, 600, or 900 mg of 6,6′-oxybis(2,2-dimethylhexanoic acid) calcium saltor placebo daily (QD) for 12 weeks.
Eligible patients were women of non-childbearing potential (naturally postmenopausal or surgically sterilized) or men 18 to 80 years of age with a baseline HDL-C<35 mg/dL. Patients were excluded if they had creatine phosphokinase (CPK)>3 times the upper limit of normal (ULN), a body mass index>35 kg/m^2, uncontrolled hypertension defined as sitting diastolic blood pressure>95 mm Hg whether taking or not taking an acceptable antihypertensive medication, uncontrolled diabetes mellitus (HbA1C>10%), hepatic dysfunction including asparate aminotransferase (AST) or alanine aminotransferase (ALT)>2 times ULN, renal dysfunction as defined by blood urea nitrogen (BUN) or creatinine>2 times ULN or uncontrolled hypothyroidism (thyroid stimulating hormone>1.5 times ULN). Also excluded were those with a history of gall bladder disease or pancreatitis, a history of consuming>14 alcoholic drinks per week, or those with a known hypersensitivity to lipid-altering drugs. Patients who had myocardial infarction, severe or unstable angina pectoris, coronary artery bypass graft or any other cardiovascular event requiring hospitalization within the last 3 months were also excluded from the study. Patients were not permitted any other lipid-altering drugs during the course of the study and if on prestudy lipid-altering drug therapy, were required to undergo an additional 4-week washout period. Use of isotretinoin, insulin, warfarin, immunosuppressive agents and intermittent systemic steroids were also prohibited.
All blood samples were collected following a 12-hour fast and analyzed using methods well known to one of skill in the art; these methods are described briefly as follows. Serum concentrations of cholesterol and triglycerides were measured using an enzymatic, colorimetric assay on a Hitachi 747 analyzer. The HDL-C samples were obtained from the supernatant after precipitation of the non-HDL lipoproteins using heparin and manganese chloride. Concentrations of CRP were measured using immunonephelometry on a nephelometer (Dade Behring, Marburg, Germany). The high sensitivity assay was used to measure CRP (Dade Behring, Marburg, Germany).
Within each TG stratum, an ANCOVA model with the effects of baseline CRP value, treatment, and site was used to analyze the percent change from baseline at the last visit for CRP by producing least squares (LS) means and p-values. p-values were unadjusted for multiplicity.
The Shapiro-Wilk Test for Normality and visual analysis of the residuals was used to determine if the assumption of normality was reasonable. Since CRP levels in all patients were not normally distributed, median percent changes are presented and Conover's nonparametric ANCOVA was used to analyze the ranked data.

In test [3] the test system is CRP. Description: Randomized, double-blind, placebo-controlled dose-response study in hypercholesterolemic patients, 8-week treatment; CRP by high sensitivity assay (Example 17). Type of test: in vivo, human. To be noted: mean of 6 and 8 week CRP level, placebo 9.4% increase. The procedure: A randomized, double-blind, placebo-controlled, parallel group, dose-response, multicenter study was conducted in hypercholesterolemic patients. The study had three periods: (1) a lipid medication wash-out visit if needed; (2) a qualifying period; and (3) an 8-week double-blind treatment period. The data discussed below is from a portion of a larger study.
Patients with significant cardiac, renal (creatinine>2.0 mg/dL) or liver (alanine aminotransferase [ALT] or aspartate aminotransferase [AST]>1.5× upper limit of normal [ULN]) disease, unexplained CPK levels>3×ULN, body mass index [BMI]>38 kg/m^2, triglycerides [TG]>400 mg/dL, or age>70 years are excluded as are women who are of childbearing potential, pregnant or lactating. A subset of eligible patients was randomized to receive placebo, 300, 600 or 900 mg/day of 6,6′-oxybis(2,2-dimethylhexanoic acid) calcium salt. Each of these groups had 13 to 15 patients.
Blood samples were collected at week −2, week −1, randomization and every two weeks thereafter. CRP levels were determined using a high sensitivity assay as in example 15. The mean of the 6 and the 8 week CRP level was calculated for each patient. Values>10 were not included in the analysis as these values are indicative of acute inflammation. For each dosage group the median of the mean values was determined. These median numbers were compared with median CRP values at baseline. Percent change from baseline in CRP levels due to the administration of 300, 600, 900 mg/day of 6,6′-oxybis(2,2-dimethylhexanoic acid) calcium salt or placebo is shown in FIG. 2. At the 300, 600 and 900 mg doses the levels of CRP were reduced by 26% (p=0.16 vs placebo), 42% (p<0.01 vs placebo) and 35% (p<0.01 vs placebo) respectively, compared to a 9.4% increase in the placebo group.

Take `CC(C)(CCCCOCCCCC(C)(C)C(=O)O)C(=O)O` [6,6′-oxybis(2,2-dimethylhexanoic acid), 6,6′-Oxybis-(2,2-dimethylhexanoic acid)]: the “doses that effectively inhibited proinflammatory cytokine induced CRP production” value in test [1] is not below 500 µM.
Regarding `CC(C)(CCCCOCCCCC(C)(C)C(=O)[O-])C(=O)[O-].[Ca+2]` [6,6′-oxybis(2,2-dimethylhexanoic acid), calcium salt], the “reduction in the CRP level” value in test [2] (600 mg/day, <200 mg/dL TG stratum, not statistically significant) is on record as 58%. Also, the “CRP level reduced by” value in test [2] (600 mg/day, ≧200 mg/dL TG stratum, p<0.05 vs Placebo) is recorded as 29%. Further, the “levels of CRP reduced by” value was 54% in test [2] (<200 mg/dL TG stratum, p<0.05 vs Placebo) and 57% in test [2] (≧200 mg/dL TG stratum, p<0.001 vs placebo). Besides, the “% change in CRP levels from base line” value is reported as −14.3% in test [2] (patients TG < 200 mg/dL, 150 mg daily (QD) for 12 weeks); −16.0% in test [2] (patients TG < 200 mg/dL, 300 mg daily (QD) for 12 weeks); −58.3% in test [2] (patients TG < 200 mg/dL, 600 mg daily (QD) for 12 weeks, not statistically significant); −53.8* % in test [2] (patients TG < 200 mg/dL, 900 mg daily (QD) for 12 weeks, p < 0.05 versus placebo); −22.2% in test [2] (patients TG ≧ 200 mg/dL, 150 mg daily (QD) for 12 weeks); −16.2% in test [2] (patients TG ≧ 200 mg/dL, 300 mg daily (QD) for 12 weeks). For the same molecule, the “% change in CRP levels from base line” value in test [2] (patients TG ≧ 200 mg/dL, 600 mg daily (QD) for 12 weeks, p < 0.05 versus placebo) is −28.6* %; in test [2] (patients TG ≧ 200 mg/dL, 900 mg daily (QD) for 12 weeks, p < 0.001 versus placebo), −57.1** %. In addition, the “levels of CRP reduced by (median percent change from baseline)” value in test [3] (300 mg/day, p=0.16 vs placebo) came to 26%; in test [3] (600 mg/day, p<0.01 vs placebo), 42%; in test [3] (900 mg/day, p<0.01 vs placebo), 35%.
